Data on 7 molecules can be found in patent US20020090380A1, “Novel formulation comprising thymol useful in the treatment of drug resistant bacterial infections” (priority 2000, published 2002).

The subject of one experiment is E. coli CA 8000 (WT). The format is cell-based, Escherichia coli. As to conditions: CA 8000 (WT).
The test system of experiment [1] is lomefloxacin resistant cells of E. coli. It is filed as cell-based, Escherichia coli.
Experiment [2] deals with Ethidium bromide resistant strain of Mycobacterium smegmetis. It is filed as cell-based.
Another experiment concerns Nal^R mutants of E. coli. The format is cell-based, Escherichia coli.
The next experiment deals with E. coli cells. The experiment is described as follows: microbe, parasite or virus in culture. It is filed as cell-based. As to conditions: Escherichia coli.

The term zone of inhibition denotes the extent of the growth-free halo in a diffusion test. A higher zone of inhibition goes with wide suppression of growth.

Each structure is given as a SMILES string. Read-outs that look alike come from different tables or passages of the source.

Turning to `CCn1cc(C(=O)O)c(=O)c2cc(F)c(N3CCNCC3)cc21` [Aorfloxacin], the “Growth in poison agar medium” value is given as “−” in the experiment with E. coli CA 8000 (WT) (20 μg/ml, Table 4); “+” in experiment [1] (CAL 101, 20 μg/ml); “+” in experiment [1] (CAL 102, 20 μg/ml); “+” in experiment [1] (CAL 103, 20 μg/ml); “+” in experiment [1] (CAL 104, 20 μg/ml); “+” in experiment [1] (CAL 105, 20 μg/ml). Besides, the “Growth in poison agar medium” value in experiment [1] (CAL 106, 20 μg/ml) is on record as “+”; in experiment [1] (CAL 107, 20 μg/ml), “+”; in experiment [1] (CAL 108, 20 μg/ml), “+”.
Regarding `O=C(N[C@H](CO)[C@H](O)c1ccc([N+](=O)[O-])cc1)C(Cl)Cl` [Chloromphenicol], the “concentration against which the strain is resistant (mdr)” value (from here on “concentration”) in experiment [2] stood at 20 µg/mL.
For the molecule `CCn1cc(C(=O)O)c(=O)c2ccc(C)nc21` [Nalidixic Acid, nalidixic acid], the “Growth in poison agar medium” value in the experiment on Nal^R mutants of E. coli (CAN 101, 50 μg/ml) is on record as “+”; in the experiment with Nal^R mutants of E. coli (CAN 102, 50 μg/ml), “+”; with Nal^R mutants of E. coli (CAN 103, 50 μg/ml) it was “+”; with Nal^R mutants of E. coli (CAN 104, 50 μg/ml) it was “+”; in the experiment with Nal^R mutants of E. coli (CAN 105, 50 μg/ml), “+”; with Nal^R mutants of E. coli (CAN 106, 50 μg/ml) it was “+”. For the same molecule, the “Growth in poison agar medium” value in the experiment with Nal^R mutants of E. coli (CAN 107, 50 μg/ml) is “+”; with Nal^R mutants of E. coli (CAN 108, 50 μg/ml), “+”; in the experiment with Nal^R mutants of E. coli (CAN 109, 50 μg/ml), “+”; in the experiment on Nal^R mutants of E. coli (CAN 110, 50 μg/ml), “+”; in the experiment with Nal^R mutants of E. coli (CAN 111, 50 μg/ml), “+”; in the experiment on Nal^R mutants of E. coli (CAN 112, 50 μg/ml), “+”. The “Growth in poison agar medium” value is on record as “+” in the experiment on Nal^R mutants of E. coli (CAN 113, 50 μg/ml); “+” in the experiment on Nal^R mutants of E. coli (CAN 114, 50 μg/ml); “+” with Nal^R mutants of E. coli (CAN 115, 50 μg/ml); “+” in the experiment with Nal^R mutants of E. coli (CAN 116, 50 μg/ml); “+” in the experiment with Nal^R mutants of E. coli (CAN 117, 50 μg/ml); “+” in the experiment with Nal^R mutants of E. coli (CAN 118, 50 μg/ml). The “Growth in poison agar medium” value is listed as “+” in the experiment on Nal^R mutants of E. coli (CAN 119, 50 μg/ml); “+” in the experiment on Nal^R mutants of E. coli (CAN 120, 50 μg/ml); “+” in the experiment on Nal^R mutants of E. coli (CAN 121, 50 μg/ml); “+” in the experiment on Nal^R mutants of E. coli (CAN 122, 50 μg/ml); “+” in the experiment with Nal^R mutants of E. coli (CAN 123, 50 μg/ml); “+” in the experiment with Nal^R mutants of E. coli (CAN 124, 50 μg/ml). For the same molecule, the “Growth in poison agar medium” value in the experiment with Nal^R mutants of E. coli (CAN 125, 50 μg/ml) is on record as “+”; with Nal^R mutants of E. coli (CAN 126, 50 μg/ml), “+”; in the experiment with E. coli CA 8000 (WT) (50 μg/ml, Table 2), “−”; with E. coli CA 8000 (WT) (50 μg/ml, Table 4), “−”; in experiment [1] (CAL 101, 50 μg/ml), “+”; in experiment [1] (CAL 102, 50 μg/ml), “+”. In addition, the “Growth in poison agar medium” value in experiment [1] (CAL 103, 50 μg/ml) was “+”; in experiment [1] (CAL 104, 50 μg/ml), “+”; in experiment [1] (CAL 105, 50 μg/ml) it was “+”; in experiment [1] (CAL 106, 50 μg/ml), “+”; in experiment [1] (CAL 107, 50 μg/ml), “+”; in experiment [1] (CAL 108, 50 μg/ml), “+”. Further, the zone of inhibition at 0.25 µg/disc in the experiment on E. coli cells (nalidixic acid 0.25 μg/disc) turned out to be 3 mm. This molecule also displayed a zone of inhibition at 0.5 µg/disc in the experiment on E. coli cells (nalidixic acid 0.50 μg/disc) of 6 mm. The molecule also yielded a zone of inhibition at 1 µg/disc in the experiment on E. coli cells (nalidixic acid 1.00 μg/disc) of 9 mm. The molecule further returned a zone of inhibition at 1.5 µg/disc in the experiment with E. coli cells (nalidixic acid 1.50 μg/disc) of 11 mm. Also, the zone of inhibition at 2 µg/disc in the experiment with E. coli cells (nalidixic acid 2.00 μg/disc) came out at 12 mm.
With `CCn1cc(C(=O)O)c(=O)c2cc3c(cc21)OCO3` [Oxolinic Acid, oxolinic acid], the “Growth in poison agar medium” value in the experiment on Nal^R mutants of E. coli (CAN 101, 5 μg/ml) is listed as “−”; in the experiment on Nal^R mutants of E. coli (CAN 102, 5 μg/ml) it was “−”; in the experiment with Nal^R mutants of E. coli (CAN 103, 5 μg/ml), “−”; in the experiment on Nal^R mutants of E. coli (CAN 104, 5 μg/ml) it was “−”; in the experiment with Nal^R mutants of E. coli (CAN 105, 5 μg/ml), “−”; in the experiment on Nal^R mutants of E. coli (CAN 106, 5 μg/ml) it was “+”. For the same molecule, the “Growth in poison agar medium” value is “+” with Nal^R mutants of E. coli (CAN 107, 5 μg/ml); “+” in the experiment with Nal^R mutants of E. coli (CAN 108, 5 μg/ml); “+” in the experiment with Nal^R mutants of E. coli (CAN 109, 5 μg/ml); “+” in the experiment on Nal^R mutants of E. coli (CAN 110, 5 μg/ml); “+” with Nal^R mutants of E. coli (CAN 111, 5 μg/ml); “−” in the experiment with Nal^R mutants of E. coli (CAN 112, 5 μg/ml). Moreover, the “Growth in poison agar medium” value is listed as “+” with Nal^R mutants of E. coli (CAN 113, 5 μg/ml); “+” with Nal^R mutants of E. coli (CAN 114, 5 μg/ml); “+” in the experiment with Nal^R mutants of E. coli (CAN 115, 5 μg/ml); “+” in the experiment on Nal^R mutants of E. coli (CAN 116, 5 μg/ml); “+” in the experiment on Nal^R mutants of E. coli (CAN 117, 5 μg/ml); “+” in the experiment with Nal^R mutants of E. coli (CAN 118, 5 μg/ml). The “Growth in poison agar medium” value was “−” in the experiment with Nal^R mutants of E. coli (CAN 119, 5 μg/ml); “−” in the experiment with Nal^R mutants of E. coli (CAN 120, 5 μg/ml); “+” with Nal^R mutants of E. coli (CAN 121, 5 μg/ml); “+” in the experiment on Nal^R mutants of E. coli (CAN 122, 5 μg/ml); “+” with Nal^R mutants of E. coli (CAN 123, 5 μg/ml); “+” in the experiment with Nal^R mutants of E. coli (CAN 124, 5 μg/ml). The “Growth in poison agar medium” value is given as “+” in the experiment on Nal^R mutants of E. coli (CAN 125, 5 μg/ml); “+” with Nal^R mutants of E. coli (CAN 126, 5 μg/ml); “−” in the experiment on E. coli CA 8000 (WT) (5 μg/ml, Table 2); “−” with E. coli CA 8000 (WT) (5 μg/ml, Table 4); “+” in experiment [1] (CAL 101, 5 μg/ml); “+” in experiment [1] (CAL 102, 5 μg/ml). Also, the “Growth in poison agar medium” value in experiment [1] (CAL 103, 5 μg/ml) is “+”; in experiment [1] (CAL 104, 5 μg/ml), “+”; in experiment [1] (CAL 105, 5 μg/ml), “+”; in experiment [1] (CAL 106, 5 μg/ml), “+”; in experiment [1] (CAL 107, 5 μg/ml), “+”; in experiment [1] (CAL 108, 5 μg/ml), “+”.
With `CO[C@H]1/C=C/O[C@@]2(C)Oc3c(C)c(O)c4c(O)c(c(/C=N/N5CCN(C)CC5)c(O)c4c3C2=O)NC(=O)/C(C)=C\C=C\[C@H](C)[C@H](O)[C@@H](C)[C@@H](O)[C@@H](C)[C@H](OC(C)=O)[C@@H]1C` [Rifampicin], the “concentration” value in experiment [2] came out at 40 µg/mL.
For `C[C@@H]1CN(c2c(F)c(N)c3c(=O)c(C(=O)O)cn(C4CC4)c3c2F)C[C@H](C)N1` [Sparfloxacin], the “Growth in poison agar medium” value with Nal^R mutants of E. coli (CAN 101, 5 μg/ml) is “+”; in the experiment with Nal^R mutants of E. coli (CAN 102, 5 μg/ml), “+”; with Nal^R mutants of E. coli (CAN 103, 5 μg/ml) it was “+”; in the experiment with Nal^R mutants of E. coli (CAN 104, 5 μg/ml), “+”; in the experiment with Nal^R mutants of E. coli (CAN 105, 5 μg/ml), “+”; in the experiment with Nal^R mutants of E. coli (CAN 106, 5 μg/ml) it was “+”. Also, the “Growth in poison agar medium” value is given as “+” with Nal^R mutants of E. coli (CAN 107, 5 μg/ml); “+” in the experiment with Nal^R mutants of E. coli (CAN 108, 5 μg/ml); “+” in the experiment on Nal^R mutants of E. coli (CAN 109, 5 μg/ml); “+” in the experiment with Nal^R mutants of E. coli (CAN 110, 5 μg/ml); “+” with Nal^R mutants of E. coli (CAN 111, 5 μg/ml); “+” with Nal^R mutants of E. coli (CAN 112, 5 μg/ml). Moreover, the “Growth in poison agar medium” value is listed as “+” in the experiment on Nal^R mutants of E. coli (CAN 113, 5 μg/ml); “+” in the experiment on Nal^R mutants of E. coli (CAN 114, 5 μg/ml); “+” in the experiment with Nal^R mutants of E. coli (CAN 115, 5 μg/ml); “+” in the experiment on Nal^R mutants of E. coli (CAN 116, 5 μg/ml); “+” in the experiment on Nal^R mutants of E. coli (CAN 117, 5 μg/ml); “+” with Nal^R mutants of E. coli (CAN 118, 5 μg/ml). Besides, the “Growth in poison agar medium” value in the experiment with Nal^R mutants of E. coli (CAN 119, 5 μg/ml) was “+”; in the experiment on Nal^R mutants of E. coli (CAN 120, 5 μg/ml) it was “+”; with Nal^R mutants of E. coli (CAN 121, 5 μg/ml) it was “+”; in the experiment with Nal^R mutants of E. coli (CAN 122, 5 μg/ml) it was “+”; in the experiment with Nal^R mutants of E. coli (CAN 123, 5 μg/ml) it was “+”; in the experiment with Nal^R mutants of E. coli (CAN 124, 5 μg/ml), “+”. The “Growth in poison agar medium” value is recorded as “+” with Nal^R mutants of E. coli (CAN 125, 5 μg/ml); “+” in the experiment on Nal^R mutants of E. coli (CAN 126, 5 μg/ml); “−” with E. coli CA 8000 (WT) (5 μg/ml, Table 2); “−” with E. coli CA 8000 (WT) (20 μg/ml, Table 4); “+” in experiment [1] (CAL 101, 20 μg/ml); “+” in experiment [1] (CAL 102, 20 μg/ml). For the same molecule, the “Growth in poison agar medium” value is reported as “+” in experiment [1] (CAL 103, 20 μg/ml); “+” in experiment [1] (CAL 104, 20 μg/ml); “+” in experiment [1] (CAL 105, 20 μg/ml); “+” in experiment [1] (CAL 106, 20 μg/ml); “+” in experiment [1] (CAL 107, 20 μg/ml); “+” in experiment [1] (CAL 108, 20 μg/ml).
In the case of `CN(C)[C@@H]1C(O)=C(C(N)=O)C(=O)[C@@]2(O)C(O)=C3C(=O)c4c(O)cccc4[C@@](C)(O)[C@H]3C[C@@H]12` [Tetracycline], the “concentration” value in experiment [2] amounted to 10 µg/mL.
